Reference: article PMC11530827, “Characterization of a cytochrome P450 that catalyzes the O-demethylation of lignin-derived benzoates” (The Journal of Biological Chemistry, 2024)
Read-outs that look alike come from different tables or passages of the source.

T1: PbdA (Rhodococcus jostii, UniProt Q0SCI3)
T1 sequence (Q0SCI3 1-400): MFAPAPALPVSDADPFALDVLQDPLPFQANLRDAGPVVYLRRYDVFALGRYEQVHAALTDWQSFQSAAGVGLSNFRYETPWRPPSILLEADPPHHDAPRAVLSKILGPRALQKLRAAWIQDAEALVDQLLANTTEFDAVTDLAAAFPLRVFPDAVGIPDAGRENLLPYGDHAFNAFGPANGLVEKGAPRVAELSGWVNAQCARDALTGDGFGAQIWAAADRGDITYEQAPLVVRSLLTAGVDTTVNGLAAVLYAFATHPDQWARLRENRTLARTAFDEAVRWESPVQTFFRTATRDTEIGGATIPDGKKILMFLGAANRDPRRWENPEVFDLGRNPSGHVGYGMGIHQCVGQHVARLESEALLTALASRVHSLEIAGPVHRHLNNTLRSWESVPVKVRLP

B1: PbdA (Rhodococcus jostii RHA1) (protein)
chain: T1 sequence (Q0SCI3 1-400)

What was measured:
[1] = biological target: T2, PbdA S87A (Rhodococcus jostii, UniProt Q0SCI3, S85A); experiment: Substrate binding to PbdA S87A variant by spectral titration; design: species or system Rhodococcus jostii RHA1
T2 construct: hexaHis (N, cleaved yes); made in house; host or cells: PbdA variant: E. coli BL-21 λ (DE3); PbdB: Rhodococcus jostii RHA1
T2 sequence (Q0SCI3 entry or part of it S85A): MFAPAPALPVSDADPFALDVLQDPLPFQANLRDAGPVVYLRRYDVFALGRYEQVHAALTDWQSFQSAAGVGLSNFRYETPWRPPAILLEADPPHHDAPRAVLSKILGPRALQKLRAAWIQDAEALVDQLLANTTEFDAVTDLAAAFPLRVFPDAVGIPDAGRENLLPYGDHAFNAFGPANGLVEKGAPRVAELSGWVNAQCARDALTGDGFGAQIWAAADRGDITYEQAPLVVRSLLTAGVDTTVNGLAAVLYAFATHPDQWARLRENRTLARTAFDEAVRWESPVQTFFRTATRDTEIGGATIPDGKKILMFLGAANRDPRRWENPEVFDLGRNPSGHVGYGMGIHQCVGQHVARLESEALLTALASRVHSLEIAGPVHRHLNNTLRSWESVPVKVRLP
Experimental: (§1) UV-visible spectroscopy was conducted with a Cary 60 spectrophotometer equipped with a thermostatted cuvette holder at 25 °C. Scans of purified proteins diluted in 20 mM Mops, I = 0.1 M, pH 7.2 were taken between 250 and 700 nm. Heme concentration was calculated as described previously ([35]). Carbon monoxide binding was determined by reduction of PbdA diluted in 20 mM Mops, I = 0.1 M, pH 7.2 as above by a few grains of […]. CO was bubbled into the reduced enzyme for approximately 60 s at a rate of one bubble per second. Dissociation constants (Kd) were determined by titration of ligands diluted into enzyme buffer from 1 M stocks prepared in dimethyl sulfoxide into PbdA diluted in 20 mM Mops, I = 0.1 M, pH 7.2. Spectra take upon addition of substrate were subtracted from the spectrum of the enzyme, and peak-to-trough distance was plotted by ligand concentration. Kd values were determined by fitting a hyperbolic equation to the data as described previously ([23], [36]). The proportion of high-spin heme iron was determined using the approximate peak-to-trough extinction coefficient (ε ≈ 100 mM^−1 cm^−1) ([36]).

[2] = biological target: T1, PbdA; settings: for NADH depletion rate / Rate of Aromatic turnover / Coupling: WT PbdAB; for NADH depletion rate: air-saturated MOPS (I = 0.1 M); for Rate of Aromatic turnover: appearance of O-demethylated product (disappearance of p-EB); for Coupling: ratio of aromatic turnover rate to NADH oxidation rate
Experimental: We then measured coupling under optimum conditions for other substrates. […] Finally, we measured the apparent steady-state kinetic parameters of the PbdA reaction under conditions of maximal coupling (Fig. S4).
(§2) For activity measurements 0.25 to 1 μM of PbdA and PbdB were combined in a 200 μl cuvette in 20 mM Mops, pH 7.2 with substrate diluted in the same buffer. NADH was added to 350 μM to initiate the reaction. For HPLC analysis, enzymatic reactions were acidified by adding acetic acid to 10% final concentration, centrifuged (16,000×g for 10 min), and filtered through a 0.2 μm polytetrafluoroethylene membrane. Samples were run over a Luna 5 μm C18(2) 100 Å 150 × 3 mm column (Phenomenex) at 0.7 ml min^−1 by a Waters 2695 separation HPLC module. Samples were eluted with a 16.8 ml linear gradient from 1% methanol plus 0.1% formic acid in water to 100% methanol plus 0.1% formic acid and monitored at 280 nm with a Waters 2996 photodiode array detector. Concentrations were determined by interpolation on a standard curve of 0 to 1 mM of authentic standard. NADH concentration was measured by absorbance at 340 nm, ε = 6.22 mM^-1 cm^-1. Coupling was calculated from the ratio of rate of aromatic turnover, as determined by HPLC, and the rate of NADH oxidation, determined spectroscopically. Buffer ionic strength was adjusted by addition of NaCl, as appropriate. Apparent steady-state kinetic parameters were calculated by fitting Michaelis–Menten equations to initial velocity of reactions at various concentrations of aromatic substrate (LEONORA).

[3] = biological target: T3, PbdA S237A (Rhodococcus jostii, UniProt Q0SCI3, S235A); experiment: Activity and coupling assay of PbdA S237A variant with PbdB; type: biochemical, Rhodococcus jostii RHA1; settings: for NADH depletion rate: air-saturated MOPS (I = 0.1 M), pH 7.2, 25 °C
T3 construct: hexaHis (N, cleaved yes); made in house; host or cells: PbdA variant: E. coli BL-21 λ (DE3); PbdB: Rhodococcus jostii RHA1
T3 sequence (Q0SCI3 entry or part of it S235A): as the sequence (Q0SCI3 entry or part of it S85A) above, with A85S, S235A counted along it
Experimental: as §2
(§3) ^aExperiments were performed using air-saturated MOPS (I = 0.1 M), pH 7.2, at 25 °C. The rate of aromatic substrate turnover was based on the appearance of O-demethylated product. Standard deviation is shown in parentheses.

[4] = biological target: T4, PbdA R84M (Rhodococcus jostii, UniProt Q0SCI3, R82M); experiment: Substrate binding to PbdA R84M variant by spectral titration; design: species or system Rhodococcus jostii RHA1
T4 construct: hexaHis (N, cleaved yes); made in house; host or cells: PbdA variant: E. coli BL-21 λ (DE3); PbdB: Rhodococcus jostii RHA1
T4 sequence (Q0SCI3 entry or part of it R82M): as the sequence (Q0SCI3 entry or part of it S85A) above, with R82M, A85S counted along it
Experimental: as §1

[5] = biological target: T4, PbdA R84M; experiment: Activity and coupling assay of PbdA R84M variant with PbdB; type: biochemical, Rhodococcus jostii RHA1; settings: air-saturated MOPS (I = 0.1 M), pH 7.2, 25 °C
Experimental: as §2, §3

[6] = system: CYP199A4; design: method as in PMID 26969786; settings: cited from earlier work
[7] = biological target: T5, PbdA S87A/S237A (Rhodococcus jostii, UniProt Q0SCI3, S235A/S85A); experiment: Activity and coupling assay of PbdA S87A/S237A variant with PbdB; type: biochemical, Rhodococcus jostii RHA1; settings: for NADH depletion rate: air-saturated MOPS (I = 0.1 M), pH 7.2, 25 °C
T5 construct: hexaHis (N, cleaved yes); made in house; host or cells: PbdA variant: E. coli BL-21 λ (DE3); PbdB: Rhodococcus jostii RHA1
T5 sequence (Q0SCI3 entry or part of it S85A/S235A): as the sequence (Q0SCI3 entry or part of it S85A) above, with S235A counted along it
Experimental: as §2, §3

[8] = biological target: T1, PbdA; experiment: Substrate binding to PbdA (WT) by type I spectral shift titration; design: hexaHis (N, cleaved yes); made in house; host or cells: PbdA: E. coli BL-21 λ (DE3); PbdB: Rhodococcus jostii RHA1; settings: for %High-spin (percent of heme iron in high-spin state): on substrate binding
Experimental: The affinity of PbdA for various LDACs was measured by the type I spectral shift upon titration of aromatic compound (Fig. 2). This shift occurs as the compound displaces a water coordinated to the heme iron, initiating a spin state transition in the latter from a low spin, hexacoordinate, to a high spin, pentacoordinate form.
Figure 2 Substrate binding of PbdA. A, difference spectra of PbdA titrated with 1 to 50 μM p-MBA from the substrate-free enzyme. Darker colors indicate higher concentration of p-MBA. Spectra were collected after each addition of substrate to 1 μM enzyme in 20 mM Mops, I = 0.1 M, pH 7.2. B, binding isotherm of PbdA and p-MBA. The fitted curve represents a simple hyperbola. p-MBA, para-methoxybenzoate.
as §1

[9] = biological target: T3, PbdA S237A; experiment: Substrate binding to PbdA S237A variant by spectral titration; design: species or system Rhodococcus jostii RHA1
Experimental: as §1

[10] = biological target: T5, PbdA S87A/S237A; experiment: Substrate binding to PbdA S87A/S237A variant by spectral titration; design: species or system Rhodococcus jostii RHA1
Experimental: as §1

[11] = biological target: T2, PbdA S87A; experiment: Activity and coupling assay of PbdA S87A variant with PbdB; type: biochemical, Rhodococcus jostii RHA1; settings: for NADH depletion rate: air-saturated MOPS (I = 0.1 M), pH 7.2, 25 °C
Experimental: as §2, §3

[12] = system: RHA1; experiment: Growth of RHA1 on p-EB; type: cell-based, Rhodococcus jostii RHA1; settings: M9G with up to 5 mM p-EB; OD600 after 48 hours
Experimental: RHA1 was grown in M9 media supplemented with a mixture trace metals […]) ([37]) and growth substrate. Growth substrates were solubilized in dimethyl sulfoxide and added to the media. For the growth on p-EB experiment, RHA1 was grown in 1 ml […] supplemented with 5 mM benzoate for 1 day shaking at 30 °C. The cells were spun harvested and washed twice with […] and added to 3 ml […] containing p-EB or benzoate at a final OD600 of 0.05. OD600 of 150 μl culture in a 96-well plate was measured by a TECAN Spark microplate reader. […] When OD600 reached 0.6, cells were harvested, washed twice in […] and suspended in 50 ml of […] 1 mM p-EB. After 4 h of incubation, cell supernatant was collected for LC-MS analysis. Figure S6: Growth of RHA1 on p-EB. Growth of WT in […] supplemented with up to 5 mM of p-EB or 5 mM benzoate. OD600 was measured after 48 hours incubation.

[13] = substrate: COc1ccc(C(=O)O)cc1O; experiment: purified protein, by the assay type; settings: other: WT PbdA with PbdB, air-saturated Mops (I = 0.1 M), pH 7.2, 25 °C, SD in parentheses
[14] = pH 7.2, 25 °C, SD in parentheses
[15] = WT PbdA, 20 mM Mops, I = 0.1 M, pH 7.2, 25 °C, SD in parentheses, read-out: Kd
[16] = appearance of O-demethylated product

Molecule | Kd [1] [µM] | NADH depletion rate [2, 14] | Rate of Aromatic turnover ([2]; SD in parentheses) | NADH depletion rate [3] | Kd [4] [µM] | NADH depletion rate [5] | O-demethylation rate relative to that of p-MBA [6] [%] | NADH depletion rate [7] | Kd [8, 15] [µM] | %High-spin (percent of heme iron in high-spin state) ([8]; WT PbdA) [%] | Kd [9] [µM] | Kd [10] [µM] | NADH depletion rate [11] | Coupling [2] | other results
COc1ccc(C(C)=O)cc1 [p-MAP, p-methoxyacetophenone] | 14 | 117 (6) U mg P450^-1 | did not detectably O-demethylate | 220 (6) U mg P450^-1 | 8 | 170 (30) U mg P450^-1 | 0.25 | 160 (30) U mg P450^-1 | 37 | 2.8 | 12 | 8 | 265 (7) U mg P450^-1 | – | –
COc1ccc(C(=O)O)cc1O [Isovanillate, isovanillate] | – | 2200 (200) U mg P450^-1 | 1600 (100) U mg P450^-1 | – | – | – | – | – | 90 | 94 | – | – | – | 75.3 (0.1) % | Coupling ([2]; listed as isovanillate): approximately 75%
CCc1ccc(C(=O)O)cc1 [p-EB, p-ethylbenzoate] | – | 830 (80) U mg P450^-1 | 900 (100) U mg P450^-1 | – | – | – | – | – | 6 | 72 | – | – | – | 110 (7) % | kcat (apparent) ([2]; WT PbdA with PbdB, air-saturated Mops (I = 0.1 M), pH 7.2, 25 °C, SD in parentheses): 0.14 (0.01) s^−1; Km ([2]; read-out: KM (apparent), WT PbdA with PbdB, air-saturated Mops (I = 0.1 M), pH 7.2, 25 °C, SD in parentheses): 12 µM; Growth of RHA1 on the compound as substrate [12]: did not grow
COc1ccc(C=O)cc1 [p-MBAL, p-methoxybenzaldehyde] | 16 | 140 (30) U mg P450^-1 | did not detectably O-demethylate | 300 (50) U mg P450^-1 | 7 | 170 (10) U mg P450^-1 | 0.1 | 200 (4) U mg P450^-1 | – | 7.9 | 12 | 8 | 290 (20) U mg P450^-1 | – | Coupling [3]: 9 (3) %; Specific activity ([3]; O-demethylation): 27 (2) U μg P450^-1; Rate of Aromatic turnover [3, 16]: 30 (3) U mg P450^-1; Coupling [7]: 90 (20) %; Specific activity ([7]; O-demethylation): 180 (20) U μg P450^-1; Rate of Aromatic turnover [7, 16]: 180 (40) U mg P450^-1; Kd [8]: 11 µM; Coupling [11]: 27 (7) %; Specific activity ([11]; O-demethylation): 80 (30) U μg P450^-1; Rate of Aromatic turnover [11, 16]: 80 (30) U mg P450^-1
B1 | – | – | – | – | – | – | – | – | – | – | – | – | – | – | Km [13]: 30 (10) μM; kcat [13]: 0.15 s⁻¹; kcat/Km [13]: 5000 M⁻¹ s⁻¹
